Source: PMC3876054, “Tyrosol and Its Analogues Inhibit Alpha-Melanocyte-Stimulating Hormone Induced Melanogenesis” (International Journal of Molecular Sciences, 2013)

Experiments:
[1] = target: T1, mushroom tyrosinase (Agaricus bisporus, UniProt C7FF04); test: spectrophotometric dopachrome assay with L-tyrosine; % inhibition at […]; assay type: biochemical; conditions: read-out: % inhibition at 4 mM
T1 construct: gene PPO3

[2] = target: T1, mushroom tyrosinase; test: as above; assay type: biochemical; conditions: read-out: % inhibition at 0.4 mM

T1 sequence (C7FF04 2-392): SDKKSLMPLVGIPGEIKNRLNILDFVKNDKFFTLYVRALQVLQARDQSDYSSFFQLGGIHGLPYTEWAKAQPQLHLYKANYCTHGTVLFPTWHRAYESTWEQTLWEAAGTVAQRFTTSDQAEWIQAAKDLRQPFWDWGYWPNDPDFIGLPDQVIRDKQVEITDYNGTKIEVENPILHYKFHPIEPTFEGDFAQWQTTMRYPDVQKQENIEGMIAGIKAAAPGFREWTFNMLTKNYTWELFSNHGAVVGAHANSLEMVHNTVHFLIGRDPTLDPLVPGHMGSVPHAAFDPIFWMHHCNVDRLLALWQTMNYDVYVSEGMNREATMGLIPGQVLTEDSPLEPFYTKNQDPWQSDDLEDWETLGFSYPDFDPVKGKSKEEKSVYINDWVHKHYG

inhibition at 4000 µM [1] [%]	inhibition at 400 µM [2] [%]	Structure (SMILES)
42.5	–	OCCc1ccc(O)cc1 [compound 1, tyrosol]
45.3	–	OCCc1cccc(O)c1 [compound 2, 2-(3-hydroxyphenyl)ethanol]
46.7	–	Cc1ccc(CCO)cc1 [compound 10, 2-(4-methylphenyl)ethanol]
–	22.2	OC[C@H]1O[C@@H](OCCc2ccc(O)cc2)[C@H](O)[C@@H](O)[C@@H]1O [compound 11, salidroside]
